Results reported in patent US12624044B2, “SMARCA degraders and uses thereof” (Kymera Therapeutics, Inc., priority 2019, dated 2026).

Biological target: SMARCA2 (Homo sapiens, UniProt P51531)
Assay: MSD SMARCA2 degradation in NCI-H1299 cell line (24 h)
Assay type: cell-based
Design: HC: NCI-H1299 cells treated with DMSO; host or cells: NCI-H1299
Details: for Dmax: NCI-H1299, NCI-H1299 cells; for DC50: NCI-H1299 cells, read-out: SMARCA2 MSD H1299 degradation 24 h: External Abs-DC50
Procedure: Example 32. MSD SMARCA2 Degradation in […] Cell Line
Cell Culture: Cells were cultured in exponential growth phase.
Compound Preparation and Treatment: NCI-H1299 cells were seeded into the 96-well plate at 4.0*10^4 cells per 100 ul per well. Incubate the plate in the incubator overnight. The next day, compounds were diluted to designed stock concentration by TECAN, then perform a 3 fold, 9-point dilution via transferring 15 uL compound into 30 μL DMSO using Apricot. 200 nL diluted compound from compound source plate were transferred into the 96-intermediate plate as designated by using Echo550, followed with 100 ul culture medium to make the 2× compound solution. Cell plate were changed with 80 ul of fresh culture medium and 80 ul of 2× compound solution was added into the well to achieve the final designed concentration. Cell plate was then shaken at 720 rpm for 5 min and incubated for 24 hours in the incubator.
Sample Preparation: Media was aspirated from the cultures and the plate was washed with PBS twice. 60 ul of pre-chilled PIPA lysis buffer (Boston BioProducts BP-115D) with protease inhibitor were directly added into the well to lyze the cells for 20 minutes at 4° C. Cell lysates were collected.
MSD Procedure: The MSD plate was coated with 40 ul cell lysate and incubated at 4° C. overnight. The next day, the MSD coated bare plate was washed 3 times with 150 ul 1×TBST per well, blocked with 150 ul of blocking buffer per well, and shaken for 1 hour at RT, 600 rpm. Blocking buffer was 3% Blocker A in TBST. MSD plate was then washed 3 times with 150 ul 1×TBST per well and Primary Detection antibody (Rabbit anti-SMARCA2/BRM antibody, 100 μg/ml, ab223735) was added to a final [conc.]: 0.3 ug/ml, 25 ul/well and shaken for 1 hour at RT, 600 rpm. Antibody was prepared in Antibody Detection buffer (1% Blocker A in 1×TBST). The MSD plate was then washed 3 times with 150 ul 1×TBST per well. Secondary Detection antibody (SULFO-TAG anti-species antibody) was then added to a final [conc.]: 1 ug/ml, 25 ul/well, and shaken for 1 hour at RT, 600 rpm. Antibodies were prepared in Antibody Detection buffer (1% Blocker A in 1×TBST). MSD plate was washed 3 times with 150 ul 1×TBST per well and 2×MSD reading buffer was added, 150 ul per well, and diluted from 4× with water. MSD instrument was then read.
Data Analysis: The percentage of relative level of SMARCA2 level was calculated following equation below.
LC: A2780, SMARCA2 negative cells. HC: NCI-H1299 cells treated with DMSO.
The letter codes for the percentage of SMARCA2 degradation after 24 hours (Dmax %) include: A (>90% degradation), B (>70-90 degradation), C (50-70 degradation), and D (<50% degradation).

Sequence of SMARCA2 (P51531 whole entry): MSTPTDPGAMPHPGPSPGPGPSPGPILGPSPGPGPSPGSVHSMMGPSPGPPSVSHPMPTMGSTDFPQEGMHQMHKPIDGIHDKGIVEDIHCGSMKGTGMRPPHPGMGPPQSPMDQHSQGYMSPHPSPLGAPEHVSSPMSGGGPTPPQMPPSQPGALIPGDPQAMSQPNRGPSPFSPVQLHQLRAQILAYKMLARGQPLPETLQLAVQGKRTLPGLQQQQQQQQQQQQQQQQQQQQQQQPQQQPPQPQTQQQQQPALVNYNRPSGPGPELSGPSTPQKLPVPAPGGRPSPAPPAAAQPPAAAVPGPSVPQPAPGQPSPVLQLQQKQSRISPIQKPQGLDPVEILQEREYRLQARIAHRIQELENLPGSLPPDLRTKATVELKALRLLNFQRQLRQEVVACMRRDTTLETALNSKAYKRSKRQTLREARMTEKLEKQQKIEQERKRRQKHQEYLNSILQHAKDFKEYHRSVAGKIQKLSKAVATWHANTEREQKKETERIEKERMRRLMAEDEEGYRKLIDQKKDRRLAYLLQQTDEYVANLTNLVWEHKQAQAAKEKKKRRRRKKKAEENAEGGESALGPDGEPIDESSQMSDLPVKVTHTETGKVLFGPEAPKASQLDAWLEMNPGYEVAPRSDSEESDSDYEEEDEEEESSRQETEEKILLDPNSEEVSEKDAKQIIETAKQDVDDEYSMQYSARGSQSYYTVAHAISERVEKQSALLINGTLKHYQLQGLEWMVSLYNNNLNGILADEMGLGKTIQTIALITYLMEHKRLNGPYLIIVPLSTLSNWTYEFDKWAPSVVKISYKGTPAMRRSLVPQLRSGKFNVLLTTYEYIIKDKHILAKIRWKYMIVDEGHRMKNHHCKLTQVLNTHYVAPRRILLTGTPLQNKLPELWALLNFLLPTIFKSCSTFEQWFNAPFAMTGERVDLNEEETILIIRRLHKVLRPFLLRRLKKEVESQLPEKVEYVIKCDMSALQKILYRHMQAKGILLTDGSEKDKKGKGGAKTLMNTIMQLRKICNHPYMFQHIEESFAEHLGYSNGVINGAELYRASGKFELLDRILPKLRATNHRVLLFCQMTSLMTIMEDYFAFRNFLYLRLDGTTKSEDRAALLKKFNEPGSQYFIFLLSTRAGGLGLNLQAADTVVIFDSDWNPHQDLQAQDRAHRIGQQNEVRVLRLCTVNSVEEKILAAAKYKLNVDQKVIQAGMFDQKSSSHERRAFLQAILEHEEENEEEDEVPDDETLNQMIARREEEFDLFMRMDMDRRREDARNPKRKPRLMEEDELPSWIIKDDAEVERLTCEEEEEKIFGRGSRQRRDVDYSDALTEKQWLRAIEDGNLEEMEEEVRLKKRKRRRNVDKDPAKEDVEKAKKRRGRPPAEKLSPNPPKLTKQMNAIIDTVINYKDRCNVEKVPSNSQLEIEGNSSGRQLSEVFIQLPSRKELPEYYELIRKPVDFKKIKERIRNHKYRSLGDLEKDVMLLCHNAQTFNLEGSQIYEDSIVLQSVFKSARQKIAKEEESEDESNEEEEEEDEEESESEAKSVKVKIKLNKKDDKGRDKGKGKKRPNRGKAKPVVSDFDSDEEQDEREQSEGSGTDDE

SMILES | Dmax [%] | DC50 [nM]
O=C1CCC(N2C(=O)c3cccc(OCCCCc4cn(CCCc5cccc(N6C[C@H]7C[C@@H]6CN7/C=C/C(=O)c6ccccc6O)n5)nn4)c3C2=O)C(=O)N1 (stereo partly drawn) [I-71, 2-(2,6-dioxopiperidin-3-yl)-4-(4-(1-(3-(6-((1R,4R)-5-((E)-3-(2-hydroxyphenyl)-3-oxoprop-1-en-1-yl)-2,5-diazabicyclo[2.2.1]heptan-2-yl)pyridin-2-yl)propyl)-1H-1,2,3-triazol-4-yl)butoxy)isoindoline-1,3-dione] | < 50 | > 1000
Cn1c(=O)n(C2CCC(=O)NC2=O)c2ccc(CNCCc3cn(Cc4cccc(N5C[C@H]6C[C@@H]5CN6/C=C/C(=O)c5ccccc5O)n4)nn3)cc21 (some centres unmarked) [I-73] | < 50 | > 1000
Cn1c(=O)n(C2CCC(=O)NC2=O)c2ccc(CNCCCc3cn(Cc4cccc(N5C[C@H]6C[C@@H]5CN6/C=C/C(=O)c5ccccc5O)n4)nn3)cc21 (some centres unmarked) [I-74] | < 50 | > 1000
Cn1c(=O)n(C2CCC(=O)NC2=O)c2ccc(CNCCCCc3cn(Cc4cccc(N5C[C@H]6C[C@@H]5CN6/C=C/C(=O)c5ccccc5O)n4)nn3)cc21 (some centres unmarked) [I-75] | < 50 | > 1000
Cn1c(=O)n(C2CCC(=O)NC2=O)c2ccc(CNCCCCCc3cn(Cc4cccc(N5C[C@H]6C[C@@H]5CN6/C=C/C(=O)c5ccccc5O)n4)nn3)cc21 (some centres unmarked) [I-76] | < 50 | > 1000
Cn1c(=O)n(C2CCC(=O)NC2=O)c2ccc(CNCCCCCCc3cn(Cc4cccc(N5C[C@H]6C[C@@H]5CN6/C=C/C(=O)c5ccccc5O)n4)nn3)cc21 (some centres unmarked) [I-77] | < 50 | > 1000
Cn1c(=O)n(C2CCC(=O)NC2=O)c2cccc(CNCCc3cn(Cc4cccc(N5C[C@H]6C[C@@H]5CN6/C=C/C(=O)c5ccccc5O)n4)nn3)c21 (stereo partly drawn) [I-78, 3-[4-[[2-[1-[[6-[(1R,4R)-5-[(E)-3-(2-hydroxyphenyl)-3-oxo-prop-1-enyl]-2,5-diazabicyclo[2.2.1]heptan-2-yl]-2-pyridyl]methyl]triazol-4-yl]ethylamino]methyl]-3-methyl-2-oxo-benzimidazol-1-yl]piperidine-2,6-dione] | < 50 | > 1000
Cn1c(=O)n(C2CCC(=O)NC2=O)c2cccc(CNCCCc3cn(Cc4cccc(N5C[C@H]6C[C@@H]5CN6/C=C/C(=O)c5ccccc5O)n4)nn3)c21 (some centres unmarked) [I-79] | < 50 | > 1000
Cn1c(=O)n(C2CCC(=O)NC2=O)c2cccc(CNCCCCc3cn(Cc4cccc(N5C[C@H]6C[C@@H]5CN6/C=C/C(=O)c5ccccc5O)n4)nn3)c21 (some centres unmarked) [I-80] | < 50 | > 1000
Cn1c(=O)n(C2CCC(=O)NC2=O)c2cccc(CNCCCCCc3cn(Cc4cccc(N5C[C@H]6C[C@@H]5CN6/C=C/C(=O)c5ccccc5O)n4)nn3)c21 (some centres unmarked) [I-81] | < 50 | > 1000
Cn1c(=O)n(C2CCC(=O)NC2=O)c2cccc(CNCCCCCCc3cn(Cc4cccc(N5C[C@H]6C[C@@H]5CN6/C=C/C(=O)c5ccccc5O)n4)nn3)c21 (some centres unmarked) [I-82] | < 50 | > 1000
Cn1c(=O)n(C2CCC(=O)NC2=O)c2ccc(CCCOc3ccc(CN4CCN(c5cc(-c6ccccc6O)nnc5N)CC4)cc3)cc21 (centres unmarked) [I-83, 3-(5-(3-(4-((4-(3-amino-6-(2-hydroxyphenyl)pyridazin-4-yl)piperazin-1-yl)methyl)phenoxy)propyl)-3-methyl-2-oxo-2,3-dihydro-1H-benzo[d]imidazol-1-yl)piperidine-2,6-dione] | < 50 | > 1000
Cn1c(=O)n(C2CCC(=O)NC2=O)c2ccc(CCCCOc3ccc(CN4CCN(c5cc(-c6ccccc6O)nnc5N)CC4)cc3)cc21 (centres unmarked) [I-84] | < 50 | > 1000
Cn1c(=O)n(C2CCC(=O)NC2=O)c2ccc(CCCCCOc3ccc(CN4CCN(c5cc(-c6ccccc6O)nnc5N)CC4)cc3)cc21 (centres unmarked) [I-85] | < 50 | > 1000
Cn1c(=O)n(C2CCC(=O)NC2=O)c2ccc(CCCCCCOc3ccc(CN4CCN(c5cc(-c6ccccc6O)nnc5N)CC4)cc3)cc21 (centres unmarked) [I-86] | < 50 | > 1000
Cn1c(=O)n(C2CCC(=O)NC2=O)c2ccc(CCCCCCCOc3ccc(CN4CCN(c5cc(-c6ccccc6O)nnc5N)CC4)cc3)cc21 (centres unmarked) [I-87] | < 50 | > 1000
Cn1c(=O)n(C2CCC(=O)NC2=O)c2ccc(CCCCCCCc3cnc(N4C5CCC4CN(c4cc(-c6ccccc6O)nnc4N)C5)nc3)cc21 (centres unmarked) [I-88] | > 90 | < 100

SMILES | Dmax [%] | DC50 [nM]
Cn1c(=O)n(C2CCC(=O)NC2=O)c2ccc(CCCCCCCCc3cnc(N4C5CCC4CN(c4cc(-c6ccccc6O)nnc4N)C5)nc3)cc21 (centres unmarked) [I-89, 3-[5-[8-[2-[3-[3-amino-6-(2-hydroxyphenyl)pyridazin-4-yl]-3,8-diazabicyclo [3.2.1]octan-8-yl]pyrimidin-5-yl]octyl]-3-methyl-2-oxo-benzimidazol-1-yl]piperidine-2,6-dione] | > 90 | < 100
Cn1c(=O)n(C2CCC(=O)NC2=O)c2cccc(CCCOc3ccc(CN4CCN(c5cc(-c6ccccc6O)nnc5N)CC4)cc3)c21 (centres unmarked) [I-90] | 50 to 70 | > 1000
Cn1c(=O)n(C2CCC(=O)NC2=O)c2cccc(CCCCOc3ccc(CN4CCN(c5cc(-c6ccccc6O)nnc5N)CC4)cc3)c21 (centres unmarked) [I-91] | < 50 | > 1000
Cn1c(=O)n(C2CCC(=O)NC2=O)c2cccc(CCCCCOc3ccc(CN4CCN(c5cc(-c6ccccc6O)nnc5N)CC4)cc3)c21 (centres unmarked) [I-92] | 50 to 70 | 100 to 500
Cn1c(=O)n(C2CCC(=O)NC2=O)c2cccc(CCCCCCOc3ccc(CN4CCN(c5cc(-c6ccccc6O)nnc5N)CC4)cc3)c21 (centres unmarked) [I-93] | < 50 | > 1000
Cn1c(=O)n(C2CCC(=O)NC2=O)c2cccc(CCCCCCCOc3ccc(CN4CCN(c5cc(-c6ccccc6O)nnc5N)CC4)cc3)c21 (centres unmarked) [I-94] | 50 to 70 | > 1000
Cn1c(=O)n(C2CCC(=O)NC2=O)c2cccc(CCCOc3cccc(CN4CCN(c5cc(-c6ccccc6O)nnc5N)CC4)c3)c21 (centres unmarked) [I-95] | < 50 | > 1000
Cn1c(=O)n(C2CCC(=O)NC2=O)c2cccc(CCCCOc3cccc(CN4CCN(c5cc(-c6ccccc6O)nnc5N)CC4)c3)c21 (centres unmarked) [I-96] | 50 to 70 | 100 to 500
Cn1c(=O)n(C2CCC(=O)NC2=O)c2cccc(CCCCCOc3cccc(CN4CCN(c5cc(-c6ccccc6O)nnc5N)CC4)c3)c21 (centres unmarked) [I-97] | 50 to 70 | 100 to 500
Cn1c(=O)n(C2CCC(=O)NC2=O)c2cccc(CCCCCCOc3cccc(CN4CCN(c5cc(-c6ccccc6O)nnc5N)CC4)c3)c21 (centres unmarked) [I-98] | 50 to 70 | 501 to 1000
Cn1c(=O)n(C2CCC(=O)NC2=O)c2cccc(CCCCCCCOc3cccc(CN4CCN(c5cc(-c6ccccc6O)nnc5N)CC4)c3)c21 (centres unmarked) [I-99] | < 50 | > 1000
Cn1c(=O)n(C2CCC(=O)NC2=O)c2ccc(CCCOc3cccc(CN4CCN(c5cc(-c6ccccc6O)nnc5N)CC4)c3)cc21 (centres unmarked) [I-100] | < 50 | > 1000
Cn1c(=O)n(C2CCC(=O)NC2=O)c2ccc(CCCCOc3cccc(CN4CCN(c5cc(-c6ccccc6O)nnc5N)CC4)c3)cc21 (centres unmarked) [I-101] | < 50 | > 1000
Cn1c(=O)n(C2CCC(=O)NC2=O)c2ccc(CCCCCOc3cccc(CN4CCN(c5cc(-c6ccccc6O)nnc5N)CC4)c3)cc21 (centres unmarked) [I-102] | < 50 | > 1000
Cn1c(=O)n(C2CCC(=O)NC2=O)c2ccc(CCCCCCOc3cccc(CN4CCN(c5cc(-c6ccccc6O)nnc5N)CC4)c3)cc21 (centres unmarked) [I-103] | < 50 | > 1000
Cn1c(=O)n(C2CCC(=O)NC2=O)c2ccc(CCCCCCCOc3cccc(CN4CCN(c5cc(-c6ccccc6O)nnc5N)CC4)c3)cc21 (centres unmarked) [I-104] | 70 to 90 | 100 to 500
Cn1c(=O)n(C2CCC(=O)NC2=O)c2ccc(CCCOCCN3CCN(Cc4ccc(-c5cc(-c6ccccc6O)nnc5N)cc4)CC3)cc21 (centres unmarked) [I-105, 3-[5-[3-[2-[4-[[4-[3-amino-6-(2-hydroxyphenyl)pyridazin-4-yl]phenyl]methyl]piperazin-1-yl]ethoxy]propyl]-3-methyl-2-oxo-benzimidazol-1-yl]piperidine-2,6-dione] | < 50 | > 1000
